# Laboratory results reported in paper PMC6273138, “Inhibitory Effects of Aschantin on Cytochrome P450 and Uridine 5′-diphospho-glucuronosyltransferase Enzyme Activities in Human Liver Microsomes” (Molecules, 2016).
# Assays:
# CYP2C8 = target: T1, CYP2C8 (Homo sapiens, UniProt P10632); test: Mechanism-based (time- and concentration-dependent) inactivation of CYP2C8 in human liver microsomes; format: in vitro ADME; conditions: CYP2C8-mediated amodiaquine N-de-ethylation
# T1 sequence (P10632 1-490): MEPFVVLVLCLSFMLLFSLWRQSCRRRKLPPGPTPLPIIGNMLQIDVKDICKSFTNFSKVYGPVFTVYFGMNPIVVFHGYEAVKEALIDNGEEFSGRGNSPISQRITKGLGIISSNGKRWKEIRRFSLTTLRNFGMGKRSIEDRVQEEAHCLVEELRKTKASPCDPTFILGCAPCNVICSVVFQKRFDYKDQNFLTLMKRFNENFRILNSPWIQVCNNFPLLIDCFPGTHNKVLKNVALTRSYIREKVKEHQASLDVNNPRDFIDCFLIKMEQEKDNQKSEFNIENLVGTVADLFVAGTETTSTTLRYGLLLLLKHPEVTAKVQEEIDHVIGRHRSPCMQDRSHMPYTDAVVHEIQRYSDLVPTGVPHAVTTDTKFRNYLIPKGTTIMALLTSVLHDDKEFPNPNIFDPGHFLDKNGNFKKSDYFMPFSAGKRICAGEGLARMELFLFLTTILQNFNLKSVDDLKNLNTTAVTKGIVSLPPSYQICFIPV
# Method: (§1) The microsomes (1 mg/mL) were pre-incubated with various concentrations of aschantin in 50 mM potassium phosphate buffer (pH 7.4) in the presence of NADPH. Aliquots (10 µL) of the incubated mixtures were withdrawn at 5, 10, 15, and 20 min after incubation commenced and added to other tubes containing the CYP substrates (2 µM amodiaquine for CYP2C8, 10 µM diclofenac for CYP2C9, 100 µM [S]-mephenytoin for CYP2C19, or 2 µM midazolam for CYP3A4), 1 mM NADPH, 50 mM potassium phosphate buffer (pH 7.4), and 10 mM MgCl2, in 90 µL reaction mixtures. […] Aliquots (5 µL) of the diluted supernatants were analyzed by LC-MS/MS, as described above.
# CYP2C9 = CYP2C9 (Homo sapiens, UniProt P11712); test: Mechanism-based (time- and concentration-dependent) inactivation of CYP2C9 in human liver microsomes; format: in vitro ADME; conditions: CYP2C9-catalyzed diclofenac 4′-hydroxylation
# CYP2C9, sequence (P11712 whole entry): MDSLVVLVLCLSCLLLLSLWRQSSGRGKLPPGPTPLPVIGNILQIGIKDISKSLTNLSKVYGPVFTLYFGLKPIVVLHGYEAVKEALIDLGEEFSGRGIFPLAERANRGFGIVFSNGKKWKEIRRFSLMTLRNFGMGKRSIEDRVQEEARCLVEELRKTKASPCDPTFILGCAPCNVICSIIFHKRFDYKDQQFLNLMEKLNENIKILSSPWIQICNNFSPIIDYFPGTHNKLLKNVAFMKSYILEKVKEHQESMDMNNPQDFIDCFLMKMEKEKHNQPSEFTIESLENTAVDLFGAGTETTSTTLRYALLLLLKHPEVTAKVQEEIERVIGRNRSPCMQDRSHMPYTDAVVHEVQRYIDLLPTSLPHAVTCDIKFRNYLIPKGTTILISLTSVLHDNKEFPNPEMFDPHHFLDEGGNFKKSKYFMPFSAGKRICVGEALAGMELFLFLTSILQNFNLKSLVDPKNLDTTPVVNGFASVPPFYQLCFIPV
# Method: as §1
# UGT1A6 = target: T2, UGT1A6 (Homo sapiens, UniProt P19224); test: UGT1A6-catalyzed N-acetylserotonin glucuronidation inhibition in pooled human liver microsomes; format: in vitro ADME; conditions: 1 µM N-acetylserotonin
# T2 construct: using pooled human liver microsomes incubated with the cocktail of UGT substrates; tissue Corning Life Sciences 452161; host or cells: pooled human liver microsomes
# T2 sequence (P19224 27-532): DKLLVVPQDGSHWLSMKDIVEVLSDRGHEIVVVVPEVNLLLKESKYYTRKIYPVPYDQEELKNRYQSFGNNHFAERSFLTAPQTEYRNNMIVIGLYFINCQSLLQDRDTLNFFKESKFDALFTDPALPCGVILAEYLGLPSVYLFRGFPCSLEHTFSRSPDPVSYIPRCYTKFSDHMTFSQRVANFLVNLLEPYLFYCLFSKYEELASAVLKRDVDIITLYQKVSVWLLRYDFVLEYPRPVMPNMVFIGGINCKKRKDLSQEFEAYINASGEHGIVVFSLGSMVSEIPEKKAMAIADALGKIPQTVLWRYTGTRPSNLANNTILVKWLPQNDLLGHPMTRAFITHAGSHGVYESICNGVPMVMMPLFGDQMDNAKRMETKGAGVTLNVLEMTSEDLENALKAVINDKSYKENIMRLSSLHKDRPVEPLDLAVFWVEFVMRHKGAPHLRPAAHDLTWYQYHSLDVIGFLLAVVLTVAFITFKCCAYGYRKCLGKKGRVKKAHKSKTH
# Method: (§2) The extents of aschantin on UGT1A1, UGT1A3, UGT1A4, UGT1A6, UGT1A9, and UGT2B7 were evaluated by LC-MS/MS, using pooled human liver microsomes incubated with the cocktail of UGT substrates. The method was modified from that of Joo et al..
# (§3) The metabolites formed from the six UGT cocktail substrates were simultaneously measured using the LC-MS/MS method. […] The mass spectrometer was equipped with an ESI source and was operated in both positive and negative ion modes. […] Each metabolite was quantified via SRM in the negative ion (chenodeoxycholic acid 24-acyl-β-glucuronide, 567.2 > 391.0; mycophenolic acid glucuronide, 495.2 > 318.9; propofol glucuronide, 353.3 > 177.1) and positive ion (SN-38 glucuronide, 569.0 > 393.0; trifluoperazine glucuronide, 584.2 > 408.1; N-acetylserotonin-β-D-glucuronide, 395.2 > 219.0; naloxone 3-β-D-glucuronide, 504.0 > 310.0; meloxicam, 352.0 > 115.1) modes.
# UGT1A9 = target: T3, UGT1A9 (Homo sapiens, UniProt O60656); test: UGT1A9-catalyzed mycophenolic acid glucuronidation inhibition in pooled human liver microsomes; format: in vitro ADME; conditions: 0.2 µM mycophenolic acid
# T3 construct: using pooled human liver microsomes incubated with the cocktail of UGT substrates; tissue Corning Life Sciences 452161; host or cells: pooled human liver microsomes
# T3 sequence (O60656 26-530): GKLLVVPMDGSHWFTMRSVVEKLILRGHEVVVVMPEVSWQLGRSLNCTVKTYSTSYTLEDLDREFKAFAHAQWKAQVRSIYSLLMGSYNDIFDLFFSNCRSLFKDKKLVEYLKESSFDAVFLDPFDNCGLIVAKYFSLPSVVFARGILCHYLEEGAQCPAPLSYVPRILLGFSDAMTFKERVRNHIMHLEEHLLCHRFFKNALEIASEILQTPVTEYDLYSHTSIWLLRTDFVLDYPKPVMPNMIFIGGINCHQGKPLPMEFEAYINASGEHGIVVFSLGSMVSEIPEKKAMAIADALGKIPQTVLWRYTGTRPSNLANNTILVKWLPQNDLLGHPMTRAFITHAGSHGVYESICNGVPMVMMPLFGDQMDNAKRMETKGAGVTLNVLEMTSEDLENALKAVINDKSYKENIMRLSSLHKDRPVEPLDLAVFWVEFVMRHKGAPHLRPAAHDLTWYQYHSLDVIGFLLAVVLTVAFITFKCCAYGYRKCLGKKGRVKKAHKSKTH
# Method: as §2, §3
# CYP3A4 = CYP3A4 (Homo sapiens, UniProt P08684); test: CYP3A4-catalyzed midazolam 1′-hydroxylase inhibition in pooled human liver microsomes; conditions: for IC50: CYP3A4 midazolam 1′-hydroxylase, 2.5 µM midazolam
# CYP3A4, sequence (P08684 2-503): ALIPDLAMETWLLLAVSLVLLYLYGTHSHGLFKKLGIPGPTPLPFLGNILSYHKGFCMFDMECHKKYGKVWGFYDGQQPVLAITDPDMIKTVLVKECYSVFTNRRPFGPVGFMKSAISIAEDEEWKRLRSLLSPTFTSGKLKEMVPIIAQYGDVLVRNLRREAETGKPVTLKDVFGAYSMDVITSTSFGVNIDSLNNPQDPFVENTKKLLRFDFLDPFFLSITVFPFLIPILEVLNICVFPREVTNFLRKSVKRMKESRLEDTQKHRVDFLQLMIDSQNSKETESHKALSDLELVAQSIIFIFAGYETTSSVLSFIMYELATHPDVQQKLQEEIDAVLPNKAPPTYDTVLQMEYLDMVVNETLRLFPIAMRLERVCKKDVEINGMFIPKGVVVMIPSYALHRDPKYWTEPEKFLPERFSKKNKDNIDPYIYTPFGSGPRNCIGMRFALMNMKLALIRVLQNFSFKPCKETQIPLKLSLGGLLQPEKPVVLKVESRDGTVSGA
smiles,measurement,setting,value
COc1cc([C@H]2OC[C@H]3[C@@H]2CO[C@@H]3c2ccc3c(c2)OCO3)cc(OC)c1OC [Aschantin],Ki,CYP2C8; read-out: Ki (apparent),10.2 µM
same,kinact,"CYP2C8; pH 7.4, probe amodiaquine (2 µM)",0.000933 s⁻¹
same,Ki,CYP2C9; read-out: Ki (apparent),3.7 µM
same,kinact,"CYP2C9; pH 7.4, probe diclofenac (10 µM)",0.000733 s⁻¹
same,IC50,UGT1A6,144 µM
same,IC50,UGT1A9,71 µM
same,IC50,"CYP3A4; IC50 No Pre-incubation, pooled human liver microsomes, no pre-incubation",57.5 µM
same,IC50,"CYP3A4; IC50 With Pre-incubation, 30 min pre-incubation with microsomes and NADPH",14.4 µM
same,IC50 shift at 0.5 h,"CYP3A4; human, pooled human liver microsomes, pH 7.4, probe midazolam (2.5 µM), 1′-hydroxylation",> 2.5
